# Data as given in ChEMBL document CHEMBL1212816, “Proanthocyanidins from the leaves of Machilus philippinensis” (J Nat Prod, 2010).
# Test: Inhibition of Bacillus stearothermophilus alpha glucosidase-4
# Parameters: species or system Geobacillus stearothermophilus
row,Compound,IC50
1,Oc1cc(O)c2c(c1)O[C@H](c1ccc(O)c(O)c1)[C@H](O)[C@H]2c1c(O)cc2c(c1O)[C@@H]1c3c(cc(O)c4c3O[C@H](c3ccc(O)c(O)c3)[C@H](O)[C@H]4c3c(O)cc(O)c4c3O[C@H](c3ccc(O)c(O)c3)[C@H](O)C4)O[C@](c3ccc(O)c(O)c3)(O2)[C@@H]1O,10.5 µM
2,Oc1cc(O)c2c(c1)O[C@H](c1ccc(O)c(O)c1)[C@H](O)[C@H]2c1c(O)c2c(c3c1O[C@]1(c4ccc(O)c(O)c4)Oc4cc(O)cc(O)c4[C@H]3[C@H]1O)O[C@H](c1ccc(O)c(O)c1)[C@H](O)[C@H]2c1c(O)cc(O)c2c1O[C@H](c1ccc(O)c(O)c1)[C@H](O)C2,> 100 µM
3,Oc1cc(O)c2c(c1)O[C@H](c1ccc(O)c(O)c1)[C@H](O)[C@H]2c1c(O)cc(O)c2c1O[C@H](c1ccc(O)c(O)c1)[C@H](O)[C@H]2c1c(O)c2c(c3c1O[C@]1(c4ccc(O)c(O)c4)Oc4cc(O)cc(O)c4[C@H]3[C@H]1O)O[C@H](c1ccc(O)c(O)c1)[C@H](O)[C@H]2c1c(O)cc(O)c2c1O[C@H](c1ccc(O)c(O)c1)[C@H](O)C2,31.3 µM
4,Oc1cc(O)c2c(c1)O[C@H](c1ccc(O)c(O)c1)[C@H](O)[C@H]2c1c(O)cc(O)c2c1O[C@H](c1ccc(O)c(O)c1)[C@H](O)[C@H]2c1c(O)cc(O)c2c1O[C@H](c1ccc(O)c(O)c1)[C@H](O)[C@H]2c1c(O)c2c(c3c1O[C@]1(c4ccc(O)c(O)c4)Oc4cc(O)cc(O)c4[C@H]3[C@H]1O)O[C@H](c1ccc(O)c(O)c1)[C@H](O)[C@H]2c1c(O)cc(O)c2c1O[C@H](c1ccc(O)c(O)c1)[C@H](O)C2,18.4 µM
5,Oc1cc(O)c2c(c1)O[C@H](c1ccc(O)c(O)c1)[C@H](O)C2 [(-)-EPICATECHIN],> 100 µM
6,C[C@H]1O[C@H](O[C@H]2[C@H](O)[C@@H](O)[C@@H](O[C@H]3[C@H](O)[C@@H](O)C(O)O[C@@H]3CO)O[C@@H]2CO)[C@H](O)[C@@H](O)[C@@H]1N[C@H]1C=C(CO)[C@@H](O)[C@H](O)[C@H]1O (some centres undefined) [ACARBOSE],0.049 µM
7,Oc1cc(O)c2c(c1)O[C@@]1(c3ccc(O)c(O)c3)Oc3cc(O)c4c(c3[C@@H]2[C@H]1O)O[C@@H](c1ccc(O)c(O)c1)[C@H](O)[C@H]4c1c(O)cc(O)c2c1O[C@H](c1ccc(O)c(O)c1)[C@H](O)C2 [AESCULTITANNIN B],3.5 µM
8,Oc1cc(O)c2c(c1)O[C@@]1(c3ccc(O)c(O)c3)Oc3cc(O)c4c(c3[C@@H]2[C@H]1O)O[C@H](c1ccc(O)c(O)c1)[C@H](O)[C@H]4c1c(O)cc(O)c2c1O[C@H](c1ccc(O)c(O)c1)[C@H](O)C2 [CINNAMTANNIN B1],> 100 µM
9,Oc1cc(O)c2c(c1)O[C@@]1(c3ccc(O)c(O)c3)Oc3cc(O)c4c(c3[C@@H]2[C@H]1O)O[C@H](c1ccc(O)c(O)c1)[C@H](O)[C@H]4c1c(O)cc(O)c2c1O[C@H](c1ccc(O)c(O)c1)[C@@H](O)C2 [CINNAMTANNIN D1],92.9 µM
